Source: patent US5234907A, “Synthetic vasoactive intestinal peptide analogs” (Hoffmann-La Roche Inc., priority 1991, dated 1993)
*1 amine or outer side, *2 acyl side, *3 side chain or, on linkers, in order; H or OH if unused. [ ]: non-standard residue; d: D form. The star is where a group is joined. Cys(Acm) = CC(=O)NCSC[C@H](N[*:1])C(=O)[*:2]; Phe(4-NH2) = Nc1ccc(C[C@H](N)C(=O)O)cc1; Phe(4-F) = N[C@@H](Cc1ccc(F)cc1)C(=O)O; Nle = CCCC[C@H](N)C(=O)O; Orn = NCCC[C@H](N)C(=O)O; Acm = CC(=O)NC*

What was measured:
[1] = tested on: guinea pig tracheal smooth muscle; experiment: Tracheal relaxant activity of VIP analogs on isolated guinea pig tracheal rings; assay type: cell-based; details: cumulative concentration response; responses as % of maximum response to VIP (10^-6 M=100%); at least three tissues pooled; linear regression
Protocol: The relaxant activity of the VIP analogs was studied in a model utilizing guinea pig trachea. [Wasserman, M. A. et al., in Vasoactive Intestinal Peptide, S. I. Said, ed., Raven Press, N.Y. 1982, pp 177-184]; All tissues were taken from male albino guinea pig weighing 400-600 g, anesthesized with urethane (2 g/kg, i.p.). After exanguination, the trachea were removed and divided into four ring segments (3 mm length). Each ring was suspended by 30 gauge stainless steel wires in a 10 mL jacketed tissue bath and attached via 4-0 silk thread to a Grass force displacement transducer (model FT03C, Grass Instruments Co., Quincy, Ma), for isometric recording of tension. The smooth muscle was bathed in modified Krebs solution of the following composition: NaCl, 120 mM; KCl, 4.7 mM; CaCl2, 2.5 mM; MgSO.4 7H2 O, 1.2 mM; NaHCO3, 25 mM; K2 HPO4 monobasic, 1.2 mM; and dextrose, 10 mM. Tissue baths were maintained at 37° C. and constantly bubbled with 95% O2 and 5% CO2. Responses were recorded on an 8 channel and a 4 channel Hewlett-Packard (model 7702B and 7754A, respectively) recorder (Hewlett-Packard, Paramus, N.J.). […] Frequent readjustments of tension were required during the 60 minute stabilization period which followed. Tissues were rinsed at 15 minute intervals.
Cumulative concentration response curves were obtained for each tissue by successive […] increases in the bath concentration of VIP or VIP analogs according to the method of VanRossum [Arch. Int. Pharmacodyn., 143, 299-330 (1963)]. Only one cumulative dose response curve was obtained on a single tissue. To minimize variability between tissues, relaxant responses were expressed as a percentage of the maximum response obtained to VIP (10^-6 M=100%) added at the end of each concentration response experiment. Responses obtained from at least three tissues were pooled and EC50 values were determined by linear regression.

[2] = tested on: guinea pigs; experiment: In vivo bronchodilator activity by tracheal instillation against histamine-induced bronchoconstriction; design: species or system guinea pig; details: 100 μl, anesthetized male Hartley guinea pigs, histamine challenge 50 μg/kg i.v., inhibition of tracheal pressure increase
Protocol: The in vivo bronchodilator activity of VIP analogs in guinea pigs was assessed by the tracheal instillation route of administration. This technique utilized male guinea pigs (Hartley strain, Charles River) weighing 400-600 g. Animals were anesthetized with urethane (2 g/kg) intraperitoneally and a polyethylene cannula was inserted into the jugular vein for intravenous drug administration.
The animals were tracheotomized and dosing solutions of distilled water or test compound dissolved in distilled water were administered into the trachea, approximately three-quarter the distance to the carina with a pipette. The concentration of the dosing solution was adjusted to deliver a constant volume of 100 μl. The animals were placed supine for one minute to aid drug delivery to the lung. One minute later, spontaneous breathing was arrested with succinylcholine chloride (1.2 mg/kg) administered intravenously, and the animals were ventilized with a Harvard Model 680 small animal respirator set at 40 breaths/min and 4.0 cm^3 stoke volume. The animals were challenged with a maximal constrictory dose of histamine (50 μg/kg, i.v.) and tracheal pressure (cm of water) was recorded from a Statham pressure transducer (P 32 AA).
The change in tracheal pressure was averaged for at least 3 control and 3 drug-treated animals and percent inhibition was calculated. The relative potency of compounds administered by the instillation route was determined by administering various doses of test compound and calculating the median inhibitory dose (ID50 value). The ID50 was determined from log dose-reasons curves generated by at least 3 doses that caused inhibitory effects between 10% and 90%. The correlation coefficient for the regression line of each antagonist was always greater than 0.95.
For determination of the time course of inhibition for various compounds, the time between administration of compound and challenge with histamine was varied. The time course of activity was calculated as the time when inhibition decreased to 40%.

Substance | EC50 [1] | Bronchodilator activity in guinea pigs, ED50 [2]
Ac--[p-F--Phe^6, Glu^8, Lys^12, Nle^17, Ala^19, Val^26, Thr^28, Gly^29,30, Cys(Acm)^31 ]--VIP (Ac-HSDAV[Phe(4-F)]TENYTKLRKQ[Nle]AAKKYLNSVLTGG[Cys(Acm)]-NH2; SMILES CCCC[C@H](NC(=O)[C@H](CCC(N)=O)NC(=O)[C@H](CCCCN)NC(=O)[C@H](CCCNC(=N)N)NC(=O)[C@H](CC(C)C)NC(=O)[C@H](CCCCN)NC(=O)[C@@H](NC(=O)[C@H](Cc1ccc(O)cc1)NC(=O)[C@H](CC(N)=O)NC(=O)[C@H](CCC(=O)O)NC(=O)[C@@H](NC(=O)[C@H](Cc1ccc(F)cc1)NC(=O)[C@@H](NC(=O)[C@H](C)NC(=O)[C@H](CC(=O)O)NC(=O)[C@H](CO)NC(=O)[C@H](Cc1c[nH]cn1)NC(C)=O)C(C)C)[C@@H](C)O)[C@@H](C)O)C(=O)N[C@@H](C)C(=O)N[C@@H](C)C(=O)N[C@@H](CCCCN)C(=O)N[C@@H](CCCCN)C(=O)N[C@@H](Cc1ccc(O)cc1)C(=O)N[C@@H](CC(C)C)C(=O)N[C@@H](CC(N)=O)C(=O)N[C@@H](CO)C(=O)N[C@H](C(=O)N[C@@H](CC(C)C)C(=O)N[C@H](C(=O)NCC(=O)NCC(=O)N[C@@H](CSCNC(C)=O)C(N)=O)[C@@H](C)O)C(C)C) [Ac--(SEQ ID NO: 67)--NH2] | 1.9 nM | 0.30 µg
Ac--[p-F--Phe^6, p-NH2 --Phe^10, Lys^12, Nle^17, Val^26, Thr^28 ]--VIP (Ac-HSDAV[Phe(4-F)]TDN[Phe(4-NH2)]TKLRKQ[Nle]AVKKYLNSVLT-NH2; SMILES CCCC[C@H](NC(=O)[C@H](CCC(N)=O)NC(=O)[C@H](CCCCN)NC(=O)[C@H](CCCNC(=N)N)NC(=O)[C@H](CC(C)C)NC(=O)[C@H](CCCCN)NC(=O)[C@@H](NC(=O)[C@H](Cc1ccc(N)cc1)NC(=O)[C@H](CC(N)=O)NC(=O)[C@H](CC(=O)O)NC(=O)[C@@H](NC(=O)[C@H](Cc1ccc(F)cc1)NC(=O)[C@@H](NC(=O)[C@H](C)NC(=O)[C@H](CC(=O)O)NC(=O)[C@H](CO)NC(=O)[C@H](Cc1c[nH]cn1)NC(C)=O)C(C)C)[C@@H](C)O)[C@@H](C)O)C(=O)N[C@@H](C)C(=O)N[C@H](C(=O)N[C@@H](CCCCN)C(=O)N[C@@H](CCCCN)C(=O)N[C@@H](Cc1ccc(O)cc1)C(=O)N[C@@H](CC(C)C)C(=O)N[C@@H](CC(N)=O)C(=O)N[C@@H](CO)C(=O)N[C@H](C(=O)N[C@@H](CC(C)C)C(=O)N[C@H](C(N)=O)[C@@H](C)O)C(C)C)C(C)C) [Ac--(SEQ ID NO: 68)--NH2] | 1.2 nM | 3.0 µg
Ac--[p-F--Phe^6, Glu^8, Lys^12, Nle^17, Val^26, Thr^28, Gly^29,30, Thr^31 ]--VIP (Ac-HSDAV[Phe(4-F)]TENYTKLRKQ[Nle]AVKKYLNSVLTGGT-NH2; SMILES CCCC[C@H](NC(=O)[C@H](CCC(N)=O)NC(=O)[C@H](CCCCN)NC(=O)[C@H](CCCNC(=N)N)NC(=O)[C@H](CC(C)C)NC(=O)[C@H](CCCCN)NC(=O)[C@@H](NC(=O)[C@H](Cc1ccc(O)cc1)NC(=O)[C@H](CC(N)=O)NC(=O)[C@H](CCC(=O)O)NC(=O)[C@@H](NC(=O)[C@H](Cc1ccc(F)cc1)NC(=O)[C@@H](NC(=O)[C@H](C)NC(=O)[C@H](CC(=O)O)NC(=O)[C@H](CO)NC(=O)[C@H](Cc1c[nH]cn1)NC(C)=O)C(C)C)[C@@H](C)O)[C@@H](C)O)C(=O)N[C@@H](C)C(=O)N[C@H](C(=O)N[C@@H](CCCCN)C(=O)N[C@@H](CCCCN)C(=O)N[C@@H](Cc1ccc(O)cc1)C(=O)N[C@@H](CC(C)C)C(=O)N[C@@H](CC(N)=O)C(=O)N[C@@H](CO)C(=O)N[C@H](C(=O)N[C@@H](CC(C)C)C(=O)N[C@H](C(=O)NCC(=O)NCC(=O)N[C@H](C(N)=O)[C@@H](C)O)[C@@H](C)O)C(C)C)C(C)C) [Ac--(SEQ ID NO: 14)--NH2] | 0.32 nM | 0.1 µg
Ac--[p-F--Phe^6, Lys^12, Nle^17, Ala^19, Val^26, Thr^28, Gly^29,30, Cys(Acm)^31 ]--VIP (Ac-HSDAV[Phe(4-F)]TDNYTKLRKQ[Nle]AAKKYLNSVLTGG[Cys(Acm)]-NH2; SMILES CCCC[C@H](NC(=O)[C@H](CCC(N)=O)NC(=O)[C@H](CCCCN)NC(=O)[C@H](CCCNC(=N)N)NC(=O)[C@H](CC(C)C)NC(=O)[C@H](CCCCN)NC(=O)[C@@H](NC(=O)[C@H](Cc1ccc(O)cc1)NC(=O)[C@H](CC(N)=O)NC(=O)[C@H](CC(=O)O)NC(=O)[C@@H](NC(=O)[C@H](Cc1ccc(F)cc1)NC(=O)[C@@H](NC(=O)[C@H](C)NC(=O)[C@H](CC(=O)O)NC(=O)[C@H](CO)NC(=O)[C@H](Cc1c[nH]cn1)NC(C)=O)C(C)C)[C@@H](C)O)[C@@H](C)O)C(=O)N[C@@H](C)C(=O)N[C@@H](C)C(=O)N[C@@H](CCCCN)C(=O)N[C@@H](CCCCN)C(=O)N[C@@H](Cc1ccc(O)cc1)C(=O)N[C@@H](CC(C)C)C(=O)N[C@@H](CC(N)=O)C(=O)N[C@@H](CO)C(=O)N[C@H](C(=O)N[C@@H](CC(C)C)C(=O)N[C@H](C(=O)NCC(=O)NCC(=O)N[C@@H](CSCNC(C)=O)C(N)=O)[C@@H](C)O)C(C)C) [Ac--(SEQ ID NO: 76)--NH2] |  | 017 µg
Ac--[Leu^5, Orn^12, Ala^17,19, Thr^25, Val^26, Thr^28, Gly^29,30, Cys(Acm)^31 ]--VIP (Ac-HSDALFTDNYT[Orn]LRKQAAAKYLNSTVNTGGC(Acm)-NH2; SMILES CC(=O)NCSC[C@H](NC(=O)CNC(=O)CNC(=O)[C@@H](NC(=O)[C@H](CC(N)=O)NC(=O)[C@@H](NC(=O)[C@@H](NC(=O)[C@H](CO)NC(=O)[C@H](CC(N)=O)NC(=O)[C@H](CC(C)C)NC(=O)[C@H](Cc1ccc(O)cc1)NC(=O)[C@H](CCCCN)NC(=O)[C@H](C)NC(=O)[C@H](C)NC(=O)[C@H](C)NC(=O)[C@H](CCC(N)=O)NC(=O)[C@H](CCCCN)NC(=O)[C@H](CCCNC(=N)N)NC(=O)[C@H](CC(C)C)NC(=O)[C@H](CCCN)NC(=O)[C@@H](NC(=O)[C@H](Cc1ccc(O)cc1)NC(=O)[C@H](CC(N)=O)NC(=O)[C@H](CC(=O)O)NC(=O)[C@@H](NC(=O)[C@H](Cc1ccccc1)NC(=O)[C@H](CC(C)C)NC(=O)[C@H](C)NC(=O)[C@H](CC(=O)O)NC(=O)[C@H](CO)NC(=O)[C@H](Cc1c[nH]cn1)NC(C)=O)[C@@H](C)O)[C@@H](C)O)[C@@H](C)O)C(C)C)[C@@H](C)O)C(N)=O) [Ac--(SEQ ID NO: 8)--NH2] |  | 0.28 µg
Ac--[Glu^8, Lys^12, Nle^17, Val^26, Thr^28, Gly^29,30, Met^31 ]--VIP (Ac-HSDAVFTENYTKLRKQ[Nle]AVKKYLNSVLTGGM-NH2; SMILES CCCC[C@H](NC(=O)[C@H](CCC(N)=O)NC(=O)[C@H](CCCCN)NC(=O)[C@H](CCCNC(=N)N)NC(=O)[C@H](CC(C)C)NC(=O)[C@H](CCCCN)NC(=O)[C@@H](NC(=O)[C@H](Cc1ccc(O)cc1)NC(=O)[C@H](CC(N)=O)NC(=O)[C@H](CCC(=O)O)NC(=O)[C@@H](NC(=O)[C@H](Cc1ccccc1)NC(=O)[C@@H](NC(=O)[C@H](C)NC(=O)[C@H](CC(=O)O)NC(=O)[C@H](CO)NC(=O)[C@H](Cc1c[nH]cn1)NC(C)=O)C(C)C)[C@@H](C)O)[C@@H](C)O)C(=O)N[C@@H](C)C(=O)N[C@H](C(=O)N[C@@H](CCCCN)C(=O)N[C@@H](CCCCN)C(=O)N[C@@H](Cc1ccc(O)cc1)C(=O)N[C@@H](CC(C)C)C(=O)N[C@@H](CC(N)=O)C(=O)N[C@@H](CO)C(=O)N[C@H](C(=O)N[C@@H](CC(C)C)C(=O)N[C@H](C(=O)NCC(=O)NCC(=O)N[C@@H](CCSC)C(N)=O)[C@@H](C)O)C(C)C)C(C)C) [Ac--(SEQ ID NO: 9)--NH2] |  | 1.7 µg
